Assay results reported in ChEMBL document CHEMBL2034881, “Inverse Virtual Screening allows the discovery of the biological activity of natural compounds” (Bioorg Med Chem, 2012).

Key:
[1] = molecular target: Protein kinase C theta type (Homo sapiens, UniProt Q04759); test: Inhibition of human PKC theta assessed as inhibition of [33P] incorporation into substrate after 60 mins by scintillation counting
[2] = molecular target: T1, 3-phosphoinositide-dependent protein kinase 1 (Homo sapiens, UniProt O15530); test: Inhibition of human PDK1 assessed as inhibition of [33P] incorporation into substrate after 60 mins by scintillation counting
T1 sequence (O15530 whole entry): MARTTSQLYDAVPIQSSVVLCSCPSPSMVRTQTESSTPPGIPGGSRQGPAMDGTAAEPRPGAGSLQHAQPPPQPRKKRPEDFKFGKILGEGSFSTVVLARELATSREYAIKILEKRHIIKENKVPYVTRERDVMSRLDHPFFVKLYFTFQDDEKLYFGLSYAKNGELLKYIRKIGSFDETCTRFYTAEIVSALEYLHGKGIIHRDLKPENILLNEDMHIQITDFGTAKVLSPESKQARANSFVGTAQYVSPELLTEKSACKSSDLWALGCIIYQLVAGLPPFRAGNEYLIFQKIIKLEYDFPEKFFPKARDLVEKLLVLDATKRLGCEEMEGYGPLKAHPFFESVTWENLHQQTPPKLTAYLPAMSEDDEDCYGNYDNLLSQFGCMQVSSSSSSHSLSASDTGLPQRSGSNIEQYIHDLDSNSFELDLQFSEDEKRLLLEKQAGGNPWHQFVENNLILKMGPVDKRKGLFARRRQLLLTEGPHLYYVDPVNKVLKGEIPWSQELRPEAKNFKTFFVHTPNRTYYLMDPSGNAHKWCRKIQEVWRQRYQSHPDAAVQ

[3] = molecular target: Protein kinase C alpha type (Homo sapiens, UniProt P17252); test: Inhibition of human PKC alpha assessed as inhibition of [33P] incorporation into substrate after 60 mins by scintillation counting

Chain of Protein kinase C theta type (Q04759 whole entry): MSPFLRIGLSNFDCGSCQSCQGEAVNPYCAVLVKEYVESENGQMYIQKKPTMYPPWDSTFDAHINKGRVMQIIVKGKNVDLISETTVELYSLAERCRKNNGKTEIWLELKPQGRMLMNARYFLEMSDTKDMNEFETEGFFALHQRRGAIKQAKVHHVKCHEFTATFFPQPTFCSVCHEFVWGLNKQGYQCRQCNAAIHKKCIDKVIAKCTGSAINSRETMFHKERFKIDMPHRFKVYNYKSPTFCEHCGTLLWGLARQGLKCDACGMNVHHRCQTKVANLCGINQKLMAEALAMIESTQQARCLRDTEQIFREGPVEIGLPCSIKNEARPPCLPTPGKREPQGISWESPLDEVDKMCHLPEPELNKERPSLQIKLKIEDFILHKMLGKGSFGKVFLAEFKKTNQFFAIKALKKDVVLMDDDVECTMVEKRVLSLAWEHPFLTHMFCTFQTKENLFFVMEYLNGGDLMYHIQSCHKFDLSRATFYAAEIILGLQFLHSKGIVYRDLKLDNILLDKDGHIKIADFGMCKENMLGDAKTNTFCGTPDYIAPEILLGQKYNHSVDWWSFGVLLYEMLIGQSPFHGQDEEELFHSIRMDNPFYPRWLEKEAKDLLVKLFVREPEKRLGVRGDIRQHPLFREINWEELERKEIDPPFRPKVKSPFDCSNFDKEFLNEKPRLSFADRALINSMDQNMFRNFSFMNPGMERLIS

SMILES	IC50 [1] [µM]	IC50 [2] [µM]	IC50 [3] [µM]
COc1cc(O)c(CC=C(C)C)c2c1C(=O)CC(c1ccc(O)cc1)O2 (stereo unspecified) [ISOXANTHOHUMOL]	31.6	58.7	45.3
COc1cc(O)c(CC=C(C)C)c(O)c1C(=O)/C=C/c1ccc(O)cc1 [XANTHOHUMOL]	> 100	6.6	> 100
